Measured values from patent EP4741383A1, “COMPOUND AND USE THEREOF AS ANTI-CANCER DRUG” (Tyligand Bioscience (Shanghai) Limited, priority 2023, dated 2025).

What follows are molecules tested on THP-1 (assay: CellTiter-Glo cell proliferation inhibition, THP-1). Details: Homo sapiens; THP-1 (leukemia cell line), 72 hours; read-out: Example IC50 (µM) THP-1.
Assay type: cell-based
Description: This experiment used the CellTiter-Glo® Luminescent Cell Viability Assay kit from Promega to evaluate the inhibitory activity of the disclosed compounds on the proliferation of the following cell lines: 4T1 (mouse breast cancer cell line), A20 (mouse B-cell lymphoma cell line), A2780 (human ovarian cancer cell line), AsPC-1 (pancreatic cancer cell line), B16F10 (mouse melanoma cell line), BT549 (human breast cancer cell line), CT26 (mouse colon cancer cell line), EMT6 (mouse breast cancer cell line), HCT116 (colorectal cancer cell line), Jurket (acute leukemia cell line), KP-4 (pancreatic cancer cell line), LL/2 (mouse lung cancer cell line), MCF7 (breast cancer cell line), […] NCI-H358 (lung cancer cell line), NCI-H727 (gastric cancer cell line), NCI-1944 (lung cancer cell line), Pan 04.03 (pancreatic cancer cell line), SK-BR-3 (breast cancer cell line), THP-1 (leukemia cell line), TOV21G (ovarian cancer cell line), U87MG (glioblastoma cell line), and UM-UC-a (bladder cancer cell line).
All cell lines were purchased from Nanjing Kebai Biotechnology Co., Ltd. The following materials were also used in the experiment: RPMI-1640 media (HyClone, catalog number #SH30022.01), McCoy's 5A media (Thermo Fisher, catalog number #16600-082), MCDB 105 media (Sigma, catalog number #117-500), Medium 199 (Thermo Fisher, catalog number #11150-059), MEM media (Thermo Fisher, catalog number #11095-080), DMEM media (HyClone, catalog number #SH30027.01), fetal bovine serum (FBS) (ExCell, catalog number # M4530), Sodium Pyruvate (100Mm) (Thermo Fisher, catalog number #11360-070), and MEM NEAA (100X) (Thermo Fisher). […]
Cells were cultured according to the instructions provided by the cell supplier (Nanjing Kebai Biotechnology Co., Ltd.). […] Suspension or adherent cells were collected, and cell viability was determined using the trypan blue exclusion method, ensuring that cell viability was above 90%. […]

Row | IC50 [µM] | Compound
1 | 0.086 | O=C(Nc1ccc(-c2csc(CO)c2)cc1)C(=O)Nc1ccc(-c2cc3cc(F)c(-c4nnn[nH]4)cc3n2C2CCC2)cc1 [Example 1]
2 | 0.063 | CC1(n2c(-c3ccc(NC(=O)C(=O)Nc4ccc(N5CCC6(CCOC6)CC5)cc4)cc3)cc3cc(F)c(-c4nnn[nH]4)cc32)CCC1 [Example 68]
3 | 0.07 | O=C(Nc1ccc(-c2cc3cc(F)c(-c4nnn[nH]4)cc3n2C2CCC2)cc1)C(=O)Nc1ccc(N2CCC3(CCC(O)C3)CC2)cc1 (stereo not drawn) [Example 100]
